Test results as given in US11591353B2 (Mindset Pharma Inc., priority 2020, dated 2023).
Read-outs that look alike come from different tables or passages of the source.

How the values were obtained:
[1] = target: human 5-HT2A (h5-HT2A) receptor (Homo sapiens (Human), UniProt P28223); assay: FLIPR assay, human 5-HT2A receptor under agonist mode; type: cell-based; conditions: agonist mode, FLIPR calcium assay; read-out: h5-HT2A EC50
Method: • I. Assessment of the activated effect of exemplary compounds of Formula I targeting on human 5-HT2A (h5-HT2A) receptor under agonist mode: Compound Preparation and Assay Controls I.a. Reagent and Materials:
1. Culture the cells in cell culture medium (DMEM containing 10% FBS 1× penicillin-streptomycin 300 μg/ml G418 and 100 μg/ml hygromycin B) at 37° C., 5% (v/v) CO2.
2. One day before the assays, detach the cell using TrypLE™ Express and count cells using cell counter.
3. Seed 20000 cells/well in 30 μl/well culture medium to a 384-well cell plate and incubate the cells overnight at 37° C., 5% (v/v) CO2.
4. On the assay day, prepare 2× dye solution following the manual of the FLIPR® Calcium 6 Assay Kit: i. Dilute the dye with assay buffer (20 mM HEPES in 1×HBSS, PH7.4); ii. Add probenecid to the final concentration of 5 mM; iii. Vortex vigorously for 1-2 minutes.
5. Medium from cell plate by flicking the cell plate on towel papers.
6. Add 10 μl of assay buffer and 10 μl of 2× dye solution to each well of the cell plate.
7. Put the cell plate on plate shaker, agitate the plate at 600 rpm for 2 minutes. Incubate the plate at 37° C. for 2 hours followed by additional 15-minute incubation at 25° C.
8. Prepare 3× compound in assay buffer: a. Dilute reference compounds to required concentration with DMSO. Add the compounds to a 384-well compound plate; b. Perform serial dilutions; c. Add 10 mM test compounds to the compound plate, perform 3-fold serial dilutions. d. […] Add 20 μl/well assay buffer to the compound plate; f. Mix the plate on plate shaker for 2 mins;
i. The normalized fluorescence reading (RFU) is calculated as shown follow, while Fmax and Fmin stand for maximum and minimum of calcium signal during defined time window: RFU=Fmax−Fmin
ii. Calculate the percentage activation by using following equation: […]
iii. Calculate EC50 by fitting % activation against log of compound concentrations with Hill equation using XLfit.

[2] = Liver microsomes stability, rat; conditions: for Remaining Percentage (%) after 60 min Rat: 2 μM, 0.5 mg/mL microsomes
Method: (§1) The objective of this study was to estimate in vitro metabolic stability of I-12 in pooled human, male rat and male mouse liver microsomes. The concentrations of parent compounds in reaction systems were evaluated by LC-MS/MS for estimating the stability in pooled human, male rat and male mouse liver microsomes. The in vitro intrinsic clearances of test compounds were determined as well.
(§2) A master solution in the “Incubation Plate” containing phosphate buffer, ultra-pure H2O, MgCl2 solution and liver microsomes was made according to Table-3. The mixture was pre-warmed at 37° C. water bath for 5 minutes.
(§3) 40 μL of 10 mM NADPH solution was added to each well. The final concentration of NADPH was 1 mM. The negative control samples were prepared by replacing NADPH with 40 μL of ultra-pure H2O. Samples were prepared in duplicate. Negative controls were prepared in singlet.
(§4) The reaction was started with the addition of 4 μL of 200 μM exemplary test compounds of the application or control compounds to each master solution to get the final concentration of 2 μM. This study was performed in duplicate.
(§5) Aliquots of 50 μL were taken from the reaction solution at 0, 15, 30, 45 and 60 minutes. The reaction solutions were stopped by the addition of 4 volumes of cold methanol with IS (100 nM alprazolam, 200 nM imipramine, 200 nM labetalol and 2 μM ketoprofen). Samples were centrifuged at 3,220 g for 40 minutes. Aliquot of 90 μL of the supernatant was mixed with 90 μL of ultra-pure H2O and then was used for LC-MS/MS analysis.
(§6) LC/MS analysis was performed for all samples from this study using a Shimadzu liquid chromatograph separation system equipped with degasser DGU-20A5R; solvent delivery unit LC-30AD; system controller SIL-30AC; column oven CTO-30A; CTC Analytics HTC PAL System. Mass spectrometric analysis was performed using an Triple Quad™ 5500 instrument.
(§7) All calculations were carried out using Microsoft Excel. Peak area ratios of test compound to internal standard (listed in the below table) were determined from extracted ion chromatograms.
(§8) All calculations were carried out using Microsoft Excel. Peak areas were determined from extracted ion chromatograms. The slope value, k, was determined by linear regression of the natural logarithm of the remaining percentage of the parent drug vs. incubation time curve.
(§9) Conversion of the in vitro t1/2 (min) into the in vitro intrinsic clearance (in vitro CLint, in μL/min/mg proteins) was done using the following equation (mean of duplicate determinations): […]

[3] = Liver microsomes stability, human; conditions: for Remaining Percentage (%) after 60 min Human: 2 μM, 0.5 mg/mL microsomes
Method: as §1, §2, §3, §4, §5, §6, §7, §8, §9

[4] = Liver microsomes stability, mouse; conditions: for Remaining Percentage (%) after 60 min Mouse: 2 μM, 0.5 mg/mL microsomes
Method: as §1, §2, §3, §4, §5, §6, §7, §8, §9

human 5-HT2A receptor = human 5-HT2A receptor (Homo sapiens (Human), UniProt P28223); assay: Radioligand binding assay on human 5-HT2A receptor ([3H]-ketanserin)
Method: i. Prepare the assay buffer following the table below;
ii. Preparation of 8 doses of reference and test compounds starting from 10 mM stock solution as requested by 5-fold serial dilutions with 100%;
iii. […] a. Add 50 μl/well of 0.5% (v/v) PEI to UniFilter-96 GF/B plates. Seal the plates and incubate at 4° C. for 3 hrs; b. After incubation, wash the plates 3 times with ice-cold wash buffer (50 mM Tris, pH7.4);
iv. Preparation of assay plates: a. Dilute cell membrane with assay buffer and add 330 μl/well to 96 round deep well plates to reach a concentration of 20 μg/well; b. […] Dilute [3H]-ketanserin with assay buffer to 5 nM (5× final concentration) and add 110 μl/well to 96 round deep well plates.
v. Centrifuge the plate at 1000 rpm for 30 secs and then agitate at 600 rpm, R.T. for 5 min.
vii. Stop the incubation by vacuum filtration onto GF/B filter plates followed by 4 times washing with ice-cold wash buffer (50 mM Tris, pH7.4).
ix. […]
For reference and exemplary test compounds of the application, the results are expressed as % Inhibition, using the normalization equation: N=100−100×(U−C2)/(C1−C2), where U is the unknown value, C1 is the average of high controls, and C2 is the average of low controls. The IC50 is determined by fitting percentage of inhibition as a function of compound concentrations with Hill equation using XLfit.

[5] = tobacco use disorder, cited from earlier work

Compound | EC50 [1] | half-life at 2 μM ([2]; male, rat, microsomes) | microsomal CLint at 2 μM ([2]; male, rat, microsomes) | Remaining Percentage (%) after 60 min Rat ([2]; with NADPH) | half-life at 2 μM ([3]; human, microsomes) | microsomal CLint at 2 μM ([3]; human, microsomes) | metabolic stability in liver microsomes (in words) ([3]; human, rat and mouse liver microsomes, 60 minute) | Remaining Percentage (%) after 60 min Human ([3]; with NADPH) | half-life at 2 μM ([4]; male, mouse, microsomes) | microsomal CLint at 2 μM ([4]; male, mouse, microsomes) | Remaining Percentage (%) after 60 min Mouse ([4]; with NADPH) | IC50 (human 5-HT2A receptor) | CLint (μL/min/mg protein) Rat ([2]; with NADPH) | t1/2 (min) Rat ([2]; with NADPH) | CLint (μL/min/mg protein) Human ([3]; with NADPH) | t1/2 (min) Human ([3]; with NADPH) | CLint (μL/min/mg protein) Mouse ([4]; with NADPH) | t1/2 (min) Mouse ([4]; with NADPH) | abstinence rate ([5]; 12 months follow-up) | abstinence rate ([5]; six months follow-up)
[2H]C([2H])([2H])N(C([2H])([2H])[2H])C([2H])([2H])C([2H])([2H])c1c[nH]c2cccc(OCc3ccccc3)c12 [Compound I-46, 2-(4-(benzyloxy)-1H-indol-3-yl)-N,N-bis(methyl-d3)ethan-1-amine-1,1,2,2-d4] | 72.6 nM | 0.593 h | 39 µL/min/mg | 108.23% | 1.31 h | 17.6 µL/min/mg | rapidly metabolized | 58.94% | 0.862 h | 26.8 µL/min/mg | 44.75% | 106 nM |  |  |  |  |  |  |  | 
CN(C)CCc1c[nH]c2cccc(O)c12 [Psilocin, 4-hydroxy-N,N-dimethyltryptamine, reference compound] |  |  |  | 62.68% |  |  |  | 70.16% |  |  | 96.89% |  | 15.57 μL/min/mg protein | 89.01 min | 11.81 μL/min/mg protein | 117.32 min | 9.78 μL/min/mg protein | 141.71 min |  | 
CN(C)CCc1c[nH]c2cccc(OP(=O)(O)O)c12 [psilocybin, 4-phosphoryloxy-N,N-dimethyltrypatmine] |  |  |  |  |  |  |  |  |  |  |  |  |  |  |  |  |  |  | 67% | 80%
